Measurements published in PMC8779173, “Discovery of Cofactor Competitive Inhibitors against the Human Methyltransferase Fibrillarin” (Pharmaceuticals, 2021).

How the values were obtained:
human fibrillarin (hFBL) [1] = target: T1, human fibrillarin (hFBL) (Homo sapiens, UniProt P22087); test: biochemical; design: SPR binding affinity of compounds to human fibrillarin methyltransferase domain; conditions: SPR
T1 construct: gene FBL; methyltransferase domain (residues 83–321)
T1 sequence (P22087 83-321): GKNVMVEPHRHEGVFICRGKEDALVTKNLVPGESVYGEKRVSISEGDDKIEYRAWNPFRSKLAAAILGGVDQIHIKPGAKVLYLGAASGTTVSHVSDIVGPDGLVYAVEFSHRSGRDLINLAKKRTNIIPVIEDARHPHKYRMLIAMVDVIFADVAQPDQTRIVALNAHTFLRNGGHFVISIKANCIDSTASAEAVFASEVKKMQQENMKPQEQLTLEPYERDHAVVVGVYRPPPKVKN
From the text: In addition, electron density for 1a was not observed beyond the amide linker, which appeared to be turning away from the catalytic site and pointing towards the bulk solvent. […] Indeed, the binding affinity of 1a turned out to be similar to that of 1 (Supplemental Table S3). […] Additionally, the extended piperidine ring in 2a was engaged in multiple hydrophobic interactions with residues G167, D236, and V237 with a stable chair conformation.

human fibrillarin (hFBL) [2] = target: T1, human fibrillarin (hFBL); test: crystal structure (soak; no density beyond the amide linker); STD NMR competition with SAM; SPR; assay type: binding
human fibrillarin (hFBL) [3] = target: T1, human fibrillarin (hFBL); test: STD NMR competition with SAM; assay type: binding
human fibrillarin (hFBL) [4] = target: T1, human fibrillarin (hFBL); test: crystal structure (soak); STD NMR competition with SAM; SPR; assay type: binding
human fibrillarin (hFBL) [5] = target: T1, human fibrillarin (hFBL); test: ITC; also SPR (Kd […]), STD NMR and crystal structure; assay type: binding

Structure (SMILES)	Kd (human fibrillarin (hFBL) [1]) [µM]	STD NMR competition with SAM (human fibrillarin (hFBL) [3])	further results
N[C@H](Cc1cccc(NC(=O)Cc2cn3nc(C(F)(F)F)cc3c(=O)[nH]2)c1)C(=O)O [1a, (R)-2-Amino-3-(3-(2-(4-oxo-2-(trifluoromethyl)-4,5-dihydropyrazolo[1,5-a]pyrazin-6-yl)acetamido)phenyl)propanoic acid]	510 ± 50	–	crystal structure (soak; no density beyond the amide linker); STD NMR competitio (human fibrillarin (hFBL) [2]): complex structures were obtained for 1a (PDB code: 7SEC) and 2a (PDB code: 7SED)
N[C@@H](Cc1cccc(NC(=O)Cc2cn3nc(C(F)(F)F)cc3c(=O)[nH]2)c1)C(=O)O [1c, (S)-2-Amino-3-(3-(2-(4-oxo-2-(trifluoromethyl)-4,5-dihydropyrazolo[1,5-a]pyrazin-6-yl)acetamido)phenyl)propanoic acid]	2660 ± 40	without the amino acid 1e were also shown to compete with SAM binding to hFBL in solution by STD NMR	–
N[C@@H](CCCNC(=O)Cc1cn2nc(C(F)(F)F)cc2c(=O)[nH]1)C(=O)O [1d, (S)-2-Amino-5-(2-(4-oxo-2-(trifluoromethyl)-4,5-dihydropyrazolo[1,5-a]pyrazin-6-yl)acetamido)pentanoic acid]	3350 ± 480	In addition to 1a, 1c, 1d, and a synthetic intermediate without the amino acid 1e were also shown to compete	–
O=C(O)Cc1cn2nc(C(F)(F)F)cc2c(=O)[nH]1 [1e, 2-(4-Oxo-2-(trifluoromethyl)-4,5-dihydropyrazolo[1,5-a]pyrazin-6-yl)acetic acid]	–	a synthetic intermediate without the amino acid 1e were also shown to compete with SAM binding to hFBL	–
FC(F)(F)c1cc(NC2CCNCC2)ncn1 [2a]	43.8 ± 2.2	–	crystal structure (soak); STD NMR competition with SAM; SPR (human fibrillarin (hFBL) [4]): complex structures were obtained for 1a (PDB code: 7SEC) and 2a (PDB code: 7SED)
FC(F)(F)c1cc(NC2CCOCC2)ncn1 [2b]	250 ± 20	both 2a and 2b were shown to compete with cofactor binding by STD NMR assays	–
C[S@@+](CC[C@H](N)C(=O)[O-])C[C@H]1O[C@@H](n2cnc3c(N)ncnc32)[C@H](O)[C@@H]1O [SAM]	33.7 ± 7.7	–	Kd (human fibrillarin (hFBL) [5]): 14 ± 0.8 µM
Cc1cn2cc(C(F)(F)F)cc2c(=O)[nH]1 [compound 1, PS-6655]	520 ± 40	–	–
Nc1cc(C(F)(F)F)ncn1 [compound 2, FS-2818]	2700 ± 780	–	–
